Data on nine molecules can be found in PubChem BioAssay (NCI).

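Tested at 5 concentrations; 48 h exposure; 96-well plates; endpoints linearly interpolated, else capped at highest concentration. At the GI50, growth is halved. TGI marks complete inhibition of growth.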

Some test systems named below: SK-OV-3 ovarian; RXF 393 renal; 786-0 renal; SNB-75 CNS; OVCAR-4 ovarian; M14 melanoma; HL-60(TB) leukemia; UACC-257 melanoma; HOP-62 NSCLC; OVCAR-8 ovarian.
Common to all, as to test: NCI anticancer screen, dose series, 48 h

Take `COc1cc2cc(Oc3ccc(NC(=O)Nc4ccc(F)c(C(F)(F)F)c4)cc3)c(C)nc2cc1OCCN1CCOCC1`: the GI50 in the test with SK-OV-3 ovarian was 3.76 µM; with RXF 393 renal, 1.78 µM; in the test on 786-0 renal, 1.73 µM; in the test with SNB-75 CNS it was 1.96 µM; in the test with OVCAR-4 ovarian, 0.706 µM; with M14 melanoma it was 1.53 µM. Further, the GI50 in the test on HL-60(TB) leukemia was 2.38 µM; with UACC-257 melanoma it was 1.75 µM; with HOP-62 NSCLC, 3.99 µM; in the test on OVCAR-8 ovarian, 2.73 µM. In addition, the TGI in the test on SK-OV-3 ovarian is 26.7 µM; with RXF 393 renal, 3.94 µM; in the test on 786-0 renal, 3.44 µM; with SNB-75 CNS, 7.45 µM; in the test with OVCAR-4 ovarian, 5.23 µM; in the test with M14 melanoma it was 3.31 µM. Also, the TGI was 6.14 µM in the test with HL-60(TB) leukemia, 5.17 µM in the test with UACC-257 melanoma, 20.5 µM in the test on HOP-62 NSCLC and over 100 µM with OVCAR-8 ovarian.
In the case of `CCOC(=O)c1c2c(n(Cc3ccccc3)c1C)-c1nc[nH]c1C(=O)C2=O`, the GI50 with SK-OV-3 ovarian is 19.5 µM; with RXF 393 renal, 11.2 µM; with 786-0 renal, 18.1 µM; in the test on SNB-75 CNS it was 4.13 µM; in the test with OVCAR-4 ovarian it was 13.5 µM; with M14 melanoma it was 21.4 µM. Further, the GI50 in the test on HL-60(TB) leukemia was 2.61 µM; in the test with UACC-257 melanoma, 16.4 µM; in the test with HOP-62 NSCLC, 18.6 µM; in the test on OVCAR-8 ovarian, 14.8 µM. Besides, the TGI in the test with SK-OV-3 ovarian is 33.6 µM; in the test on RXF 393 renal, 23.2 µM; in the test on 786-0 renal it was 32.1 µM; in the test on SNB-75 CNS it was 16.2 µM; in the test on OVCAR-4 ovarian, 26.3 µM; in the test on M14 melanoma it was 37.9 µM. In addition, the TGI in the test with HL-60(TB) leukemia came out at 10.3 µM; in the test with UACC-257 melanoma it was 30 µM; in the test on HOP-62 NSCLC, 33.2 µM; with OVCAR-8 ovarian it was 28 µM.
As to `O=C1NC(=N[C@@H]2C[C@H]2c2ccccc2)S/C1=C\c1ccc2ncccc2c1`, the GI50 in the test with SK-OV-3 ovarian is 1.06 µM; in the test on RXF 393 renal it was 1.12 µM; in the test with 786-0 renal, 2.27 µM; in the test with SNB-75 CNS, 1.02 µM; in the test on OVCAR-4 ovarian, 0.854 µM; in the test with M14 melanoma, 1.34 µM. The GI50 was 0.876 µM with HL-60(TB) leukemia, 5.17 µM in the test with UACC-257 melanoma, 1.67 µM with HOP-62 NSCLC and 2.05 µM in the test on OVCAR-8 ovarian. For the same molecule, the TGI with SK-OV-3 ovarian was 4.06 µM; with RXF 393 renal it was 4.84 µM; in the test on 786-0 renal, 6.01 µM; in the test on SNB-75 CNS, 5.17 µM; with OVCAR-4 ovarian, 6.71 µM; in the test on M14 melanoma, over 25 µM. The TGI in the test on HL-60(TB) leukemia worked out at 9.47 µM; with UACC-257 melanoma it was 18.9 µM; with HOP-62 NSCLC, 6.38 µM; with OVCAR-8 ovarian, 9.69 µM.
As for `Cc1cccc2c1NC(=O)[C@@H](NC(=O)[C@H](CCC(F)(F)F)[C@H](CCC(F)(F)F)C(N)=O)N=C2c1cccc(F)c1`, the GI50 is 28.7 µM in the test with SK-OV-3 ovarian; 13.5 µM with RXF 393 renal; 20.6 µM in the test with 786-0 renal; 10.8 µM with SNB-75 CNS; 22.4 µM in the test with OVCAR-4 ovarian; 73.2 µM with M14 melanoma. For the same molecule, the GI50 in the test on HL-60(TB) leukemia was over 100 µM; with UACC-257 melanoma, 48.6 µM; in the test on HOP-62 NSCLC it was 25.8 µM; with OVCAR-8 ovarian, 30.5 µM. Moreover, the TGI is 91.3 µM in the test on SK-OV-3 ovarian; 40.4 µM in the test on RXF 393 renal; 56.3 µM in the test with 786-0 renal; 32.1 µM in the test with SNB-75 CNS; 61.9 µM with OVCAR-4 ovarian; over 100 µM in the test on M14 melanoma. Besides, the TGI is over 100 µM in the test on HL-60(TB) leukemia, over 100 µM in the test on UACC-257 melanoma, 92.1 µM with HOP-62 NSCLC and over 100 µM in the test with OVCAR-8 ovarian.
As for `CC1OC(n2ccc3ccc([N+](=O)[O-])cc32)C(O)C(O)C1O` (stereo not given), the TGI in the test on SK-OV-3 ovarian, in the test with RXF 393 renal, in the test on 786-0 renal, with SNB-75 CNS, in the test with OVCAR-4 ovarian and in the test on M14 melanoma was over 100 µM each time. The TGI in the test on HL-60(TB) leukemia, with UACC-257 melanoma, with HOP-62 NSCLC and in the test on OVCAR-8 ovarian was over 100 µM throughout.
Regarding `C#CCOCCCC(=O)O`, the TGI with SK-OV-3 ovarian, in the test with RXF 393 renal, in the test with 786-0 renal, in the test on SNB-75 CNS, in the test on OVCAR-4 ovarian and in the test on M14 melanoma was over 100 µM each time. Besides, the TGI in the test with HL-60(TB) leukemia, in the test with UACC-257 melanoma, in the test with HOP-62 NSCLC and with OVCAR-8 ovarian was over 100 µM throughout.
For `COc1cc(C)cc(C(=O)OCc2ccccc2)c1C1=C(Cl)C(=O)C(Cl)=CC1=O`, the TGI is over 10 µM with SK-OV-3 ovarian; over 10 µM with RXF 393 renal; over 10 µM with 786-0 renal; over 10 µM in the test with SNB-75 CNS; over 9 µM with OVCAR-4 ovarian; over 10 µM in the test on M14 melanoma. For the same molecule, the TGI is 2.55 µM in the test on HL-60(TB) leukemia, over 10 µM in the test on UACC-257 melanoma, over 10 µM in the test with HOP-62 NSCLC and over 10 µM in the test on OVCAR-8 ovarian.
In the case of `COc1ccc(/C=C2\C(=O)Nc3ccccc32)cc1OC`, the TGI in the test on SK-OV-3 ovarian is over 100 µM; in the test on RXF 393 renal, over 100 µM; in the test on 786-0 renal it was over 100 µM; in the test with SNB-75 CNS, 81.3 µM; with OVCAR-4 ovarian, over 100 µM; with M14 melanoma it was over 100 µM. The TGI in the test with HL-60(TB) leukemia, with UACC-257 melanoma, in the test with HOP-62 NSCLC and in the test with OVCAR-8 ovarian was over 100 µM in each case.
On to `OCC(O)COc1ccc(F)cc1` (stereo not given), for which the TGI in the test on SK-OV-3 ovarian, with RXF 393 renal, in the test with 786-0 renal, with SNB-75 CNS, with OVCAR-4 ovarian and with M14 melanoma was over 100 µM in each case. The TGI in the test with HL-60(TB) leukemia, in the test with UACC-257 melanoma, in the test on HOP-62 NSCLC and in the test on OVCAR-8 ovarian was over 100 µM in each case.
